Data on 19 compounds can be found in patent US8134015B2, “Compound inhibiting in vivo phosphorous transport and medicine containing the same” (Kyowa Hakko Kirin Co., Ltd., priority 2003, dated 2012).

The structures appear in SMILES notation. pIC50: −log10 of the molar value.

In one test the target is T1, rat NaPi-2b (Rattus norvegicus, UniProt Q9JJ09).
T1 construct: expressed in transfected cells; host or cells: Xenopus oocytes injected with cRNA
T1 sequence (Q9JJ09 1-695): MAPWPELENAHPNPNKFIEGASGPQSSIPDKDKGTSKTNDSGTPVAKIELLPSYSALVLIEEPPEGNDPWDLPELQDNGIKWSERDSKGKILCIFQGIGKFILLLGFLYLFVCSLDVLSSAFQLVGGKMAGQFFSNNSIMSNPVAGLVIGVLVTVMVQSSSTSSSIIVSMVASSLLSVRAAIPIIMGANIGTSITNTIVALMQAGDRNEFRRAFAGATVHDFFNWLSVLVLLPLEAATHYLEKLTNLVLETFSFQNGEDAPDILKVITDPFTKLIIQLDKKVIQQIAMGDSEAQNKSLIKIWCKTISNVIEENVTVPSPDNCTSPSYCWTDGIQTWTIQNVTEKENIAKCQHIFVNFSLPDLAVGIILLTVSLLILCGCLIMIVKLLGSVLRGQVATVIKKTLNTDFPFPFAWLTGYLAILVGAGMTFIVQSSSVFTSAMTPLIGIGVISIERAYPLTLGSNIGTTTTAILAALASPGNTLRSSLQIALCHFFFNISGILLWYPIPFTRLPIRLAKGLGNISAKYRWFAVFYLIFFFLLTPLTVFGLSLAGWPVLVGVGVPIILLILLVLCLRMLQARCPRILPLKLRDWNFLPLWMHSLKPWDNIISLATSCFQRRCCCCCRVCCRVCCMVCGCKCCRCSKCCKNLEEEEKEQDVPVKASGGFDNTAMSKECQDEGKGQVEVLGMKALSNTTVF
As to the kind of experiment: Sodium-dependent phosphate uptake of Xenopus oocytes which expressed NaPi-2b (32P). The class given is cell-based. Particulars: Xenopus oocytes expressing rat NaPi-2b, 32P radioactive phosphorus; read-out: IC50 (phosphate uptake inhibitory activity). Summed up:
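Read-out is 32P phosphate uptake into Xenopus oocytes expressing rat intestinal NaPi-2b (cRNA injection, 2-day culture). Inhibition at 300 μM and 100 μM was derived from a single inhibition curve and given as percent.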

The target in the next test is T2, human NaPi-2a (Homo sapiens, UniProt Q06495).
T2 construct: expressed in transfected cells
T2 sequence (Q06495 1-639): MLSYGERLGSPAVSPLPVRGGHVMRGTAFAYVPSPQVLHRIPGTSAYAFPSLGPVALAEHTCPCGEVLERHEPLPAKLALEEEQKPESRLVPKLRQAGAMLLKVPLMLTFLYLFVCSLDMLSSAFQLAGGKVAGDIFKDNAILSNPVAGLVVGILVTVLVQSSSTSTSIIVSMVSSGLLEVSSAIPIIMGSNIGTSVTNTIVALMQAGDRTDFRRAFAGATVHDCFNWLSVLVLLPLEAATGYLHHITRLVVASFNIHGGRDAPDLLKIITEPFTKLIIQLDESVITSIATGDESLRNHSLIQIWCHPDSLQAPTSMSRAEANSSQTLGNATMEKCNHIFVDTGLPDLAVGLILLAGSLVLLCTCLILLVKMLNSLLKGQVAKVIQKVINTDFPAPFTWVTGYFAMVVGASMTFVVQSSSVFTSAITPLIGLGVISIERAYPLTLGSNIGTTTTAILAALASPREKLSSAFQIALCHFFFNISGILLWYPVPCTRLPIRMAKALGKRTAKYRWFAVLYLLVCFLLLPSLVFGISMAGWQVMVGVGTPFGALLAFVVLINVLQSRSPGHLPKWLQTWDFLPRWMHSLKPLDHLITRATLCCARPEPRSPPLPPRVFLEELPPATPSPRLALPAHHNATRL
The experiment in a line: Sodium-dependent phosphate uptake of Xenopus oocytes which expressed NaPi-2a (32P). The class given is cell-based. The conditions noted are these: phosphate uptake, Xenopus oocytes expressing human NaPi-2a; five concentration levels. An excerpt: Experiment of Sodium-Dependent Phosphate Uptake of Xenopus oocytes which Expressed NaPi-2a
In the test, a group with the addition of choline chloride (Choline Cl) was used as a negative control for nonspecific uptake, and PFA (phosphonoformic acid) was used as a positive control for phosphate transport inhibition.

As a reminder, the pIC50 is the negative decadic logarithm of the IC50, by convention in mol/L. Regarding `Cc1ccc(/C=N/NC(=O)c2cc(N3CCCCC3)ccc2NC(=O)c2cccc(CN3CCN(CCO)CC3)c2)cc1` [Compound 865, 3-[4-(2-Hydroxy-ethyl)-piperazin-1-ylmethyl]-N-[2-(4-methyl-benzylidene-hydrazinocarbonyl)-4-piperidin-1-yl-phenyl]-benzamide], the negative logarithm of the IC50 (pIC50) was 5.83 on rat NaPi-2b and 5.36 at human NaPi-2a.

In the case of `Cc1ccc(/C=N/NC(=O)c2c(NC(=O)c3cccc(CN(CC(C)O)CC(C)O)c3)sc3c2CCCC3)cc1C` (centres unmarked) [Compound 627, 3-{[Bis-(2-hydroxy-propyl)-amino]-methyl}-N-[3-(3,4-dimethyl-benzylidene-hydrazinocarbonyl)-4,5,6,7-tetrahydro-benzo-[b]thiophen-2-yl]-benzamide], the figures for the negative-log IC50 (pIC50) at rat NaPi-2b and against human NaPi-2a were above 6.00 and 5.45, respectively.

Turning to `COc1ccc(/C=N/NC(=O)c2c(C)csc2NC(=O)c2cccc(CN(CC(C)O)CC(C)O)c2)cc1` (centres unmarked) [Compound 592, 3-{[Bis-(2-hydroxy-propyl)-amino]-methyl}-N-[3-(4-methoxy-benzylidene-hydrazinocarbonyl)-4-methyl-thiophen-2-yl]-benzamide], the pIC50 on rat NaPi-2b is 4.92; against human NaPi-2a, 5.02.

In the case of `Cc1csc(NC(=O)c2cccc(CN(CCO)CCO)c2)c1C(=O)N/N=C/c1cccc(F)c1` [Compound 789, 3-{[Bis-(2-hydroxy-ethyl)-amino]-methyl}-N-[3-(3-fluoro-benzylidene-hydrazinocarbonyl)-4-methyl-thiophen-2-yl]-benzamide], the values for the pIC50 on rat NaPi-2b and at human NaPi-2a were 5.94 and 5.03, respectively.

Regarding `O=C(Nc1ccc(N2CCCCC2)cc1C(=O)N/N=C/c1cccc(F)c1)c1cccc(CN2CCc3nc4ncccc4cc3C2)c1` [Compound 896, 3-(7,8-Dihydro-5H-1,6,9-triaza-anthracen-6-ylmethyl)-N-[2-(3-fluoro-benzylidene-hydrazinocarbonyl)-4-piperidin-1-yl-phenyl]-benzamide], the negative logarithm of the IC50 (pIC50) on rat NaPi-2b is above 6.52; against human NaPi-2a it was 5.13.

Turning to `CC(O)CN(Cc1cccc(C(=O)Nc2sc3c(c2C(=O)N/N=C/c2cccc(F)c2)CCC3)c1)CC(C)O` (centres unmarked) [Compound 806, 3-{[Bis-(2-hydroxy-propyl)-amino]-methyl}-N-[3-(3-fluoro-benzylidene-hydrazinocarbonyl)-5,6-dihydro-4H-cyclopenta[b]thiophen-2-yl]-benzamide], the pIC50 on rat NaPi-2b is 5.41; on human NaPi-2a, 4.92.

As for `Cc1ccc(/C=N/NC(=O)c2cc(F)ccc2NC(=O)c2cccc(CN(CC(C)O)CC(C)O)c2)cc1C` (centres unmarked) [Compound 985, 3-{[Bis-(2-hydroxy-propyl)-amino]-methyl}-N-[2-(3,4-dimethyl-benzylidene-hydrazinocarbonyl)-4-fluoro-phenyl]-benzamide], the pIC50 on rat NaPi-2b and on human NaPi-2a was above 5.52 throughout.

In the case of `Cc1csc(NC(=O)c2cccc(CN3CCC4(CC3)OCCO4)c2)c1C(=O)N/N=C/c1ccc(Cl)c(C(F)(F)F)c1` [Compound 836, N-[3-(4-Chloro-3-trifluoromethyl-benzylidene-hydrazinocarbonyl)-4-methyl-thiophen-2-yl]-3-(1,4-dioxa-8-aza-spiro[4,5]dec-8-ylmethyl]-benzamide], the pIC50 at rat NaPi-2b is 6.11; on human NaPi-2a, 4.99.

Take `Cc1ccc(/C=N/NC(=O)c2c(NC(=O)c3cccc(CN(CC(C)O)CC(C)O)c3)sc3ccccc23)cc1` (centres unmarked) [Compound 793, 3-{[Bis-(2-hydroxy-propyl)-amino]-methyl}-N-[3-(4-methyl-benzylidene-hydrazinocarbonyl)-benzo[b]thiophen-2-yl]-benzamide]: the pIC50 on rat NaPi-2b was 5.85; against human NaPi-2a, 5.07.

Take `COc1ccc(C(=O)Nc2ccc(N3CCCCC3)cc2C(=O)N/N=C/c2ccc(C)c(C)c2)cc1OC` [Compound 935, N-[2-(3,4-Dimethyl-benzylidene-hydrazinocarbonyl)-4-piperidin-1-yl-phenyl]-3,4-dimethoxy-benzamide]: the negative logarithm of the IC50 (pIC50) was 6.77 on rat NaPi-2b and 5.01 at human NaPi-2a.

Turning to `CCN(CC)CCN(C)Cc1cccc(C(=O)Nc2ccc(OCCOC)cc2C(=O)N/N=C/c2ccc(Cl)c(C(F)(F)F)c2)c1` [Compound 1027, N-[2-(4-Chloro-3-trifluoromethyl-benzylidene-hydrazinocarbonyl)-4-(2-methoxy-ethoxy)-phenyl]-3-{[(2-diethylamino-ethyl)-methyl-amino]-methyl}-benzamide], the negative logarithm of the IC50 (pIC50) at rat NaPi-2b was 5.92; against human NaPi-2a it was 5.80.

With `COc1ccc(/C=N/NC(=O)c2c(C)csc2NC(=O)c2cccc(CN(CCO)CCO)c2)cc1` [Compound 791, 3-{[Bis-(2-hydroxy-ethyl)-amino]-methyl}-N-[3-(4-methoxy-benzylidene-hydrazinocarbonyl)-4-methyl-thiophen-2-yl]-benzamide], the negative logarithm of the IC50 (pIC50) was 5.26 at rat NaPi-2b and 5.17 on human NaPi-2a.

With `O=C(Nc1sc2c(c1C(=O)N/N=C/c1ccc(Cl)c(C(F)(F)F)c1)CCCC2)c1cccc(CN2CCC(O)CC2)c1` [Compound 637, N-[3-(4-Chloro-3-trifluoromethyl-benzylidene-hydrazinocarbonyl)-4,5,6,7-tetrahydro-benzo[b]thiophen-2-yl]-3-(4-hydroxy-piperidin-1-ylmethyl)-benzamide], the negative-log IC50 (pIC50) at rat NaPi-2b is above 6.00; against human NaPi-2a, 6.02.

Consider `O=C(Nc1sc2c(c1C(=O)N/N=C/c1ccc(F)cc1)CCCC2)c1cccc(CN2CCC(O)CC2)c1` [Compound 635, N-[3-(4-Fluoro-benzylidene-hydrazinocarbonyl)-4,5,6,7-tetrahydro-benzo[b]thiophen-2-yl]-3-(4-hydroxy-piperidin-1-ylmethyl)-benzamide], for which the negative-log IC50 (pIC50) on rat NaPi-2b is 5.81; at human NaPi-2a, 5.87.

For `CC(O)CN(Cc1cccc(C(=O)Nc2sc3ccccc3c2C(=O)N/N=C/c2cccc(F)c2)c1)CC(C)O` (centres unmarked) [Compound 795, 3-{[Bis-(2-hydroxy-propyl)-amino]-methyl}-N-[3-(3-fluoro-benzylidene-hydrazinocarbonyl)-benzo[b]thiophen-2-yl]-benzamide], the results for the pIC50 at rat NaPi-2b and against human NaPi-2a were 5.72 and 5.07, respectively.

Consider `O=C(O)CCSCc1cccc(C(=O)Nc2ccc(N3CCCCC3)cc2C(=O)N/N=C/c2ccc(Cl)c(C(F)(F)F)c2)c1` [Compound 889, 3-{3-[2-(4-Chloro-3-trifluoromethyl-benzylidene-hydrazinocarbonyl)-4-piperidin-1-yl-phenylcarbamoyl]-benzylsulfanyl}-propionic acid], for which the pIC50 is 6.48 at rat NaPi-2b and 5.85 on human NaPi-2a.

Take `Cc1csc(NC(=O)c2cccc(CN3CCN(c4ncccn4)CC3)c2)c1C(=O)N/N=C/c1ccc(F)cc1` [Compound 828, N-[3-(4-Fluoro-benzylidene-hydrazinocarbonyl)-4-methyl-thiophen-2-yl]-3-(4-pyrimidin-2-yl-piperazin-1-ylmethyl)-benzamide]: the pIC50 is 5.03 on rat NaPi-2b and 5.00 on human NaPi-2a.

As to `COc1ccc(NC(=O)c2cccc(CSCC(O)CO)c2)c(C(=O)N/N=C/c2ccc(Cl)c(C(F)(F)F)c2)c1` (centres unmarked) [Compound 1020, N-[2-(4-Chloro-3-trifluoromethyl-benzylidene-hydrazinocarbonyl)-4-methoxy-phenyl]-3-(2,3-dihydroxy-propylsulfanyl-methyl)-benzamide], the figures for the pIC50 on rat NaPi-2b and on human NaPi-2a were 6.41 and 5.65, respectively.

Regarding `O=C(Nc1sc2ccccc2c1C(=O)N/N=C/c1cccc(F)c1)c1cccc(CN2CCC(CO)CC2)c1` [Compound 801, N-[3-(3-Fluoro-benzylidene-hydrazinocarbonyl)-benzo[b]thiophen-2-yl]-3-(4-hydroxymethyl-piperidin-1-ylmethyl)-benzamide], the values for the pIC50 on rat NaPi-2b and at human NaPi-2a were 5.33 and 5.43, respectively.
